Results from US20210395239A1 (Hoffmann-La Roche Inc., priority 2018, published 2021).

Target: T1, human TLR8 (Homo sapiens, UniProt Q9NR97)
T1 construct: host or cells: HEK293 (HEK-Blue hTLR8)
T1 sequence (Q9NR97 27-1041): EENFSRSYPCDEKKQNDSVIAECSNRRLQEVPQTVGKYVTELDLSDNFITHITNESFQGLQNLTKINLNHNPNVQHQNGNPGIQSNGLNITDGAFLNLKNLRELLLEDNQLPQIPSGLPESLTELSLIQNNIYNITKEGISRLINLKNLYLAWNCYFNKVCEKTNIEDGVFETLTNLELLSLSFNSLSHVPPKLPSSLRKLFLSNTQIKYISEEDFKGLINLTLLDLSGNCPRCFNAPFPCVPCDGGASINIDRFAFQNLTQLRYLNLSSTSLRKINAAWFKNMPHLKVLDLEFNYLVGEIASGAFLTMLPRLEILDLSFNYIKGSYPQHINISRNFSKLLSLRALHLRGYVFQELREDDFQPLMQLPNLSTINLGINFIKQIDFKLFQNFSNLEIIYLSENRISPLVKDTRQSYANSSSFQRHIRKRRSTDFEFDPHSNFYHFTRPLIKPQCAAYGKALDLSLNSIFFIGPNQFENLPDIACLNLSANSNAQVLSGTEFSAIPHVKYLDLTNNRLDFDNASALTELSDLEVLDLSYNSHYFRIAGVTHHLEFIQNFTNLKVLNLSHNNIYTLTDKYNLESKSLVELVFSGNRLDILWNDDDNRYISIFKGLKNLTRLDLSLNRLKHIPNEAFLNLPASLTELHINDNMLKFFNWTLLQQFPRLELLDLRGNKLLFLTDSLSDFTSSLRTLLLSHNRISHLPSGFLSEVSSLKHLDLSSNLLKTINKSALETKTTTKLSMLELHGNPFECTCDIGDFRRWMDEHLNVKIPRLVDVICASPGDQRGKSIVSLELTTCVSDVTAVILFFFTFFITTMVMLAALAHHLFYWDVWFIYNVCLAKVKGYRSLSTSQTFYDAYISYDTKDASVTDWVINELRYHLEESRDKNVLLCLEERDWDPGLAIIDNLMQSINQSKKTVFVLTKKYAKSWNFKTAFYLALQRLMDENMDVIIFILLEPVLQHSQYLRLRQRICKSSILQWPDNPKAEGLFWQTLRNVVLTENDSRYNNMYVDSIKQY
Assay: HEK293-Blue-hTLR-8 cells assay (SEAP reporter, R848 stimulation)
Assay type: cell-based
Conditions: HEK293-Blue-hTLR8 cells, R848, 20 hrs; read-out: HEK/hTLR8 IC50
Method in brief: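 Antagonism read as reduced R848-induced SEAP reporter secretion, detected by QUANTI-Blue absorbance at 620–655 nm after 2 h. Reporter cells were exposed to compound dilutions in DMEM/10% FBS, 1% DMSO, for 20 h at 37° C.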

| IC50 [nM] | Structure (SMILES) |
| --- | --- |
| 3 | CO[C@H]1CN(c2nc(C)cc(N3CCN(C[C@H]4CN(c5ccc(C#N)c6ncccc56)C[C@@H](C)O4)CC3)n2)C[C@H]1N [Example 60, 5-[(2R,6S)-2-methyl-6-[[4-[6-methyl-2-[cis-3-amino-4-methoxy-pyrrolidin-1-yl]pyrimidin-4-yl]piperazin-1-yl]methyl]morpholin-4-yl]quinoline-8-carbonitrile] |
| 4 | Cc1cc(N2CCN(C[C@H]3CN(c4ccc(C#N)c5ncccc45)C[C@@H](C)O3)CC2)nc(N2C[C@@H]3COC[C@@H](C2)N3)n1 [Example 58, 5-[(2R,6S)-2-methyl-6-[[4-[6-methyl-2-[(1R,5R)-3-oxa-7,9-diazabicyclo[3.3.1]nonan-7-yl]pyrimidin-4-yl]piperazin-1-yl]methyl]morpholin-4-yl]quinoline-8-carbonitrile] |
| 10 | C[C@@H]1CN(c2ccc(C#N)c3ncccc23)C[C@H](CN2CCN(c3ccc(N4CC(N)C(F)C4)nc3)CC2)O1 (stereo partly drawn) [Example 44, 5-[(2S,6R)-2-[[4-[6-(3-amino-4-fluoro-pyrrolidin-1-yl)-3-pyridyl]piperazin-1-yl]methyl]-6-methyl-morpholin-4-yl]quinoline-8-carbonitrile] |
| 32 | C[C@@H]1CN(c2ccc(C#N)c3ncccc23)C[C@H](CN2CCN(c3cccc(N4CCNCC(O)C4)n3)CC2)O1 (stereo partly drawn) [Example 41, 5-[(2S,6R)-2-[[4-[6-(6-hydroxy-1,4-diazepan-1-yl)-2-pyridyl]piperazin-1-yl]methyl]-6-methyl-morpholin-4-yl]quinoline-8-carbonitrile] |
| 6 | C[C@@H]1CN(c2ccc(C#N)c3ncccc23)C[C@H](CN2CCN(c3ccnc(OCCN(C)C)n3)CC2)O1 [Example 30, 5-[(2S,6R)-2-[[4-[2-[2-(dimethylamino)ethoxy]pyrimidin-4-yl]piperazin-1-yl]methyl]-6-methyl-morpholin-4-yl]quinoline-8-carbonitrile] |
| 4 | C[C@@H]1CN(c2ccc(C#N)c3ncccc23)C[C@H](CN2CCN(c3nc(N4CCNCC4)ncc3F)CC2)O1 [Example 45, 5-[(2S,6R)-2-[[4-(5-fluoro-2-piperazin-1-yl-pyrimidin-4-yl)piperazin-1-yl]methyl]-6-methyl-morpholin-4-yl]quinoline-8-carbonitrile] |
| 11 | C[C@@H]1CN(c2ccc(C#N)c3ncccc23)C[C@H](CN2CCN(c3cccc(NC4CNC4)n3)CC2)O1 [Example 38] |
| 3 | C[C@@H]1CN(c2ccc(C#N)c3ncccc23)C[C@H](CN2CCN(c3ccnc(N4CCN(C)CC4)n3)CC2)O1 [Example 22, 5-((2R,6S)-2-methyl-6-((4-(2-(4-methylpiperazin-1-yl)pyrimidin-4-yl)piperazin-1-yl)methyl)morpholino)quinoline-8-carbonitrile] |
| 323 | C[C@@H]1CN(c2cc(=O)n(C)c3ncccc23)C[C@H](CN2CC(c3ccc(N4CC(C)(N)C4)cc3)C2)O1 [Example 176, 4-[(2S,6R)-2-[[3-[4-(3-amino-3-methyl-azetidin-1-yl)phenyl]azetidin-1-yl]methyl]-6-methyl-morpholin-4-yl]-1-methyl-1,8-naphthyridin-2-one] |
| 13 | C[C@@H]1CN(c2ccc(C#N)n3ncc(F)c23)C[C@H](CN2CCN(c3ccc(C4CNCCO4)cc3F)CC2)O1 (stereo in doubt) [Example 183, 3-fluoro-4-[(2S,6R)-2-[[4-[2-fluoro-4-[(2S)-morpholin-2-yl]phenyl]piperazin-1-yl]methyl]-6-methyl-morpholin-4-yl]pyrazolo[1,5-a]pyridine-7-carbonitrile] |
| 3 | C[C@@H]1CN(c2ccc(C#N)c3ncccc23)C[C@H](CN2CCN(c3cnc(N4CCNCC4)nc3)CC2)O1 [Example 12, 5-[(2R,6S)-2-methyl-6-[[4-(2-piperazin-1-ylpyrimidin-5-yl)piperazin-1-yl]methyl]morpholin-4-yl]quinoline-8-carbonitrile] |
| 3 | C[C@@H]1CN(c2ccc(C#N)c3ncccc23)C[C@H](CN2CCN(c3ccnc(N4CCN(C(=O)CN(C)C)CC4)n3)CC2)O1 [Example 32, 5-[(2S,6R)-2-[[4-[2-[4-[2-(dimethylamino)acetyl]piperazin-1-yl]pyrimidin-4-yl]piperazin-1-yl]methyl]-6-methyl-morpholin-4-yl]quinoline-8-carbonitrile] |
| 7 | C[C@@H]1CN(c2ccc(C#N)c3ncccc23)C[C@H](CN2CCN(c3ccnc(N4CCNCC(O)C4)n3)CC2)O1 (stereo partly drawn) [Example 25, 5-[(2S,6R)-2-[[4-[2-(6-hydroxy-1,4-diazepan-1-yl)pyrimidin-4-yl]piperazin-1-yl]methyl]-6-methyl-morpholin-4-yl]quinoline-8-carbonitrile] |
| 4 | C[C@@H]1CN(c2ccc(C#N)c3ncccc23)C[C@H](CN2CCN(c3ccnc(N4CCN(C(=O)C5CCN5)CC4)n3)CC2)O1 (stereo partly drawn) [Example 34, 5-[(2S,6R)-2-[[4-[2-[4-(azetidine-2-carbonyl)piperazin-1-yl]pyrimidin-4-yl]piperazin-1-yl]methyl]-6-methyl-morpholin-4-yl]quinoline-8-carbonitrile] |
| 14 | C[C@@H]1CN(c2ccc(C#N)n3ncc(F)c23)C[C@H](CN2CCN(c3ccc([C@@H]4CNCCO4)c(F)c3)CC2)O1 [Example 184, 3-fluoro-4-[(2S,6R)-2-[[4-[3-fluoro-4-[(2R)-morpholin-2-yl]phenyl]piperazin-1-yl]methyl]-6-methyl-morpholin-4-yl]pyrazolo[1,5-a]pyridine-7-carbonitrile] |
| 91 | C[C@@H]1CN(c2ccc(C#N)n3ncc(F)c23)C[C@H](CN2CCN(c3ccc(N4CCOC5(CNC5)C4)nc3)CC2)O1 [Example 178, 3-fluoro-4-[(2R,6S)-2-methyl-6-[[4-[6-(5-oxa-2,8-diazaspiro[3.5]nonan-8-yl)-3-pyridyl]piperazin-1-yl]methyl]morpholin-4-yl]pyrazolo[1,5-a]pyridine-7-carbonitrile] |
| 13 | C[C@@H]1CN(c2ccc(C#N)n3ncc(F)c23)C[C@H](CN2CCN(c3ccc(N4CC5(CN(C)C5)C4)nc3)CC2)O1 [Example 170, 3-fluoro-4-[(2R,6S)-2-methyl-6-[[4-[6-(6-methyl-2,6-diazaspiro[3.3]heptan-2-yl)-3-pyridyl]piperazin-1-yl]methyl]morpholin-4-yl]pyrazolo[1,5-a]pyridine-7-carbonitrile] |
| 3 | Cc1cc(N2CCN(C[C@H]3CN(c4ccc(C#N)c5ncccc45)C[C@@H](C)O3)CC2)nc(N2CCNCC2)n1 [Example 47, 5-[(2R,6S)-2-methyl-6-[[4-(6-methyl-2-piperazin-1-yl-pyrimidin-4-yl)piperazin-1-yl]methyl]morpholin-4-yl]quinoline-8-carbonitrile] |
| 3 | CO[C@H]1CN(c2nccc(N3CCN(C[C@H]4CN(c5ccc(C#N)c6ncccc56)C[C@@H](C)O4)CC3)n2)CC1N (stereo in doubt) [Example 53, 5-[(2S,6R)-2-[[4-[2-[(3S,4S)-3-amino-4-methoxy-pyrrolidin-1-yl]pyrimidin-4-yl]piperazin-1-yl]methyl]-6-methyl-morpholin-4-yl]quinoline-8-carbonitrile] |
| 34 | C[C@@H]1CN(c2ccc(C#N)n3ncc(F)c23)C[C@H](CN2CCN(c3ccc(N[C@H]4CNC[C@H]4F)nc3)CC2)O1 [Example 167, 3-fluoro-4-[(2S,6R)-2-[[4-[6-[[(3S,4R)-4-fluoropyrrolidin-3-yl]amino]-3-pyridyl]piperazin-1-yl]methyl]-6-methyl-morpholin-4-yl]pyrazolo[1,5-a]pyridine-7-carbonitrile] |
| 10 | C[C@@H]1CN(c2ccc(C#N)c3ncccc23)C[C@H](CN2CCN(c3ccc([C@H]4CNCCO4)cc3)CC2)O1 [Example 20, 5-[(2R,6S)-2-methyl-6-[[4-[4-[(2S)-morpholin-2-yl]phenyl]piperazin-1-yl]methyl]morpholin-4-yl]quinoline-8-carbonitrile] |
| 77 | C[C@@H]1CN(c2cc(=O)n(C)c3ncccc23)C[C@H](CN2CC(c3ccc(N4CC5(CN(C)C5)C4)cc3)C2)O1 [Example 180, 1-methyl-4-[(2R,6S)-2-methyl-6-[[3-[4-(6-methyl-2,6-diazaspiro[3.3]heptan-2-yl)phenyl]azetidin-1-yl]methyl]morpholin-4-yl]-1,8-naphthyridin-2-one] |
| 4 | C[C@@H]1CN(c2ccc(C#N)c3ncccc23)C[C@H](CN2CCN(c3ccnc(NC4CNC4)n3)CC2)O1 [Example 28, 5-[(2S,6R)-2-[[4-[2-(azetidin-3-ylamino)pyrimidin-4-yl]piperazin-1-yl]methyl]-6-methyl-morpholin-4-yl]quinoline-8-carbonitrile] |
